{"source": "patent US12036312B2", "about": "“Non-aqueous topical compositions comprising a halogenated salicylanilide” (priority 2016, dated 2024)", "tested_on": "S. aureus", "experiment": "MIC assay according to CLSI criteria, Example 2, S. aureus strains", "type": "cell-based, Staphylococcus aureus", "details": "Staphylococcus aureus", "description": "Chosen for its relevance regarding bacterial skin infections, the methicillin-resistant S. aureus (MRSA) 01 strain was used as the primary test microorganism. This strain is a community-acquired MRSA clinical isolate of USA 300 type, from a skin abscess.\nTwo-hundred-four other MRSA and methicillin-sensitive S. aureus strains, and 4 Streptococcus pyogenes strains, were also included in the study. These covered fusidic acid- and mupirocin-resistant strains, these two types of resistance being of clinical relevance.\nStrains were conserved in Luria Bertani (LB) Broth (S. aureus) or Brain Heart Infusion (BHI) (S. pyogenes) supplemented with glycerol 15% (v/v) at −80° C., and reactivated by isolation on LB (S. aureus) or BHI (S. pyogenes) agar plates. Strains were cultivated in Mueller Hinton (MH) Broth-cation adjusted (S. aureus) or BHI (S. pyogenes). All strains were cultivated aerobically (microaerobically for S. pyogenes strains) at 37° C.\nBacterial cultures were stopped in their exponential growth phase and plates were inoculated with the approximate concentration of 5×10^5 cells per well. Plates were incubated at 37° C. for 18 hours (S. aureus) or 24 hours (S. pyogenes). Optical density at a wavelength of 600 nm was measured at the end of the incubation time."}
{"molecule": "C=C[C@]1(C)C[C@@H](OC(=O)CS[C@@H]2C[C@H]3CC[C@@H](C2)N3C)[C@]2(C)[C@H](C)CC[C@]3(CCC(=O)[C@H]32)[C@@H](C)[C@@H]1O", "note": "[Retapamulin, retapamulin]", "values": [{"measurement": "MIC", "setting": "MRSA, strain MRSA 99", "value": 0.03, "unit": "µg/mL"}, {"measurement": "MIC", "setting": "MRSA, strain MRSA 100", "value": 1, "unit": "µg/mL"}, {"measurement": "MIC", "setting": "MRSA, strain MRSA 101", "value": 0.03, "unit": "µg/mL"}, {"measurement": "MIC", "setting": "MRSA, strain MRSA 102", "value": 0.03, "unit": "µg/mL"}, {"measurement": "MIC", "setting": "MRSA, strain MRSA 103", "value": 0.03, "unit": "µg/mL"}, {"measurement": "MIC", "setting": "MRSA, strain MRSA 104", "value": 0.03, "unit": "µg/mL"}, {"measurement": "MIC", "setting": "MRSA, strain MRSA 105", "value": 0.03, "unit": "µg/mL"}, {"measurement": "MIC", "setting": "MRSA, strain MRSA 106", "value": 0.06, "unit": "µg/mL"}, {"measurement": "MIC", "setting": "MRSA, strain MRSA 107", "value": 0.06, "unit": "µg/mL"}, {"measurement": "MIC", "setting": "MRSA, strain MRSA 108", "value": 0.03, "unit": "µg/mL"}, {"measurement": "MIC", "setting": "MRSA, strain MRSA 109", "value": 0.03, "unit": "µg/mL"}, {"measurement": "MIC", "setting": "MRSA, strain MRSA 110", "value": 0.03, "unit": "µg/mL"}, {"measurement": "MIC", "setting": "MRSA, strain MRSA 111", "value": 0.03, "unit": "µg/mL"}, {"measurement": "MIC", "setting": "MRSA, strain MRSA 112", "value": 0.03, "unit": "µg/mL"}, {"measurement": "MIC", "setting": "MRSA, strain MRSA 113", "value": 0.03, "unit": "µg/mL"}, {"measurement": "MIC", "setting": "MSSA, strain MSSA 01", "value": 0.03, "unit": "µg/mL"}, {"measurement": "MIC", "setting": "MSSA, strain MSSA 02", "value": 0.03, "unit": "µg/mL"}, {"measurement": "MIC", "setting": "NEWMAN, strain Newman", "value": 0.03, "unit": "µg/mL"}, {"measurement": "MIC", "setting": "strain 9-1862936", "value": 0.03, "unit": "µg/mL"}, {"measurement": "MIC", "setting": "strain 9-2625962", "value": 0.03, "unit": "µg/mL"}, {"measurement": "MIC", "setting": "strain 9-2642158", "value": 0.06, "unit": "µg/mL"}, {"measurement": "MIC", "setting": "strain 9-2955245", "value": 0.06, "unit": "µg/mL"}, {"measurement": "MIC", "setting": "strain 9-26422166", "value": 0.03, "unit": "µg/mL"}, {"measurement": "MIC", "setting": "strain 000040C", "value": 0.03, "unit": "µg/mL"}, {"measurement": "MIC", "setting": "strain 000041C", "value": 0.03, "unit": "µg/mL"}, {"measurement": "MIC", "setting": "strain 000274T", "value": 0.06, "unit": "µg/mL"}, {"measurement": "MIC", "setting": "strain 114660U", "value": 0.06, "unit": "µg/mL"}, {"measurement": "MIC", "setting": "strain 115015T", "value": 0.06, "unit": "µg/mL"}, {"measurement": "MIC", "setting": "strain 115242C", "value": 0.03, "unit": "µg/mL"}, {"measurement": "MIC", "setting": "strain 115263C", "value": 0.03, "unit": "µg/mL"}, {"measurement": "MIC", "setting": "strain 115268C", "value": 0.03, "unit": "µg/mL"}, {"measurement": "MIC", "setting": "strain 115273C", "value": 0.03, "unit": "µg/mL"}, {"measurement": "MIC", "setting": "strain 115295C", "value": 0.03, "unit": "µg/mL"}, {"measurement": "MIC", "setting": "strain 115303C", "value": 0.03, "unit": "µg/mL"}, {"measurement": "MIC", "setting": "strain 115370U", "value": 0.06, "unit": "µg/mL"}, {"measurement": "MIC", "setting": "strain 115427C", "value": 0.03, "unit": "µg/mL"}, {"measurement": "MIC", "setting": "strain 115445C", "value": 0.03, "unit": "µg/mL"}, {"measurement": "MIC", "setting": "strain 115561C", "value": 0.03, "unit": "µg/mL"}, {"measurement": "MIC", "setting": "strain 115584D", "value": 0.06, "unit": "µg/mL"}, {"measurement": "MIC", "setting": "strain 115628T", "value": 0.03, "unit": "µg/mL"}, {"measurement": "MIC", "setting": "strain 115690C", "value": 0.25, "unit": "µg/mL"}, {"measurement": "MIC", "setting": "strain 115691T", "value": 0.03, "unit": "µg/mL"}, {"measurement": "MIC", "setting": "strain 115740E", "value": 0.06, "unit": "µg/mL"}, {"measurement": "MIC", "setting": "strain 115810E", "value": 0.06, "unit": "µg/mL"}, {"measurement": "MIC", "setting": "strain 115903T", "value": 0.03, "unit": "µg/mL"}, {"measurement": "MIC", "setting": "strain 116122T", "value": 0.03, "unit": "µg/mL"}, {"measurement": "MIC", "setting": "strain E5-1029252", "value": 0.03, "unit": "µg/mL"}, {"measurement": "MIC", "setting": "strain E5-1029558", "value": 0.03, "unit": "µg/mL"}, {"measurement": "MIC", "setting": "strain E5-1030440", "value": 0.06, "unit": "µg/mL"}, {"measurement": "MIC", "setting": "strain E5-1030469", "value": 0.03, "unit": "µg/mL"}, {"measurement": "MIC", "setting": "strain E5-1030472", "value": 0.06, "unit": "µg/mL"}, {"measurement": "MIC", "setting": "strain E5-1030482", "value": 0.02, "unit": "µg/mL"}, {"measurement": "MIC", "setting": "strain E5-1033076 (first listing, r204)", "value": 0.03, "unit": "µg/mL"}, {"measurement": "MIC", "setting": "strain E5-1033076 (second listing, r205)", "value": 0.03, "unit": "µg/mL"}, {"measurement": "MIC", "setting": "strain E5-1033088", "value": 0.03, "unit": "µg/mL"}, {"measurement": "MIC", "setting": "strain E5-1033091", "value": 0.02, "unit": "µg/mL"}, {"measurement": "MIC", "setting": "strain E5-1035277", "value": 0.03, "unit": "µg/mL"}, {"measurement": "MIC", "setting": "strain E5-1035284", "value": 0.03, "unit": "µg/mL"}, {"measurement": "MIC", "setting": "strain E5-1035775", "value": 0.06, "unit": "µg/mL"}, {"measurement": "MIC", "setting": "strain E5-1035779", "value": 0.03, "unit": "µg/mL"}, {"measurement": "MIC", "setting": "strain E5-1037958", "value": 0.06, "unit": "µg/mL"}, {"measurement": "MIC", "setting": "strain E5-1037971", "value": 0.03, "unit": "µg/mL"}, {"measurement": "MIC", "setting": "strain E5-1038279", "value": 0.03, "unit": "µg/mL"}, {"measurement": "MIC", "setting": "strain E5-1038286", "value": 0.06, "unit": "µg/mL"}, {"measurement": "MIC", "setting": "strain E5-1038294", "value": 0.03, "unit": "µg/mL"}, {"measurement": "MIC", "setting": "strain E5-1039684", "value": 0.06, "unit": "µg/mL"}, {"measurement": "MIC", "setting": "strain E5-1039697", "value": 0.06, "unit": "µg/mL"}, {"measurement": "MIC", "setting": "strain E5-1041977", "value": 0.03, "unit": "µg/mL"}, {"measurement": "MIC", "setting": "strain E5-1041979", "value": 0.03, "unit": "µg/mL"}, {"measurement": "MIC", "setting": "strain E5-1041980", "value": 0.03, "unit": "µg/mL"}, {"measurement": "MIC", "setting": "strain E5-1041987", "value": 0.03, "unit": "µg/mL"}, {"measurement": "MIC", "setting": "strain E5-1043184", "value": 0.03, "unit": "µg/mL"}, {"measurement": "MIC", "setting": "strain E5-1043668", "value": 0.06, "unit": "µg/mL"}, {"measurement": "MIC", "setting": "strain E5-1045179", "value": 0.06, "unit": "µg/mL"}, {"measurement": "MIC", "setting": "strain E5-1046019", "value": 0.03, "unit": "µg/mL"}, {"measurement": "MIC", "setting": "strain E5-1046020", "value": 0.06, "unit": "µg/mL"}, {"measurement": "MIC", "setting": "strain E5-1046039", "value": 0.06, "unit": "µg/mL"}, {"measurement": "MIC", "setting": "strain E5-1046070", "value": 0.03, "unit": "µg/mL"}, {"measurement": "MIC", "setting": "strain E5-1046074", "value": 0.06, "unit": "µg/mL"}, {"measurement": "MIC", "setting": "strain E5-1046085", "value": 0.06, "unit": "µg/mL"}, {"measurement": "MIC", "setting": "strain E5-1046096", "value": 0.06, "unit": "µg/mL"}, {"measurement": "MIC", "setting": "strain E5-1046296", "value": 0.03, "unit": "µg/mL"}, {"measurement": "MIC", "setting": "strain E5-1046297", "value": 0.06, "unit": "µg/mL"}, {"measurement": "MIC", "setting": "strain E5-1046298", "value": 0.03, "unit": "µg/mL"}, {"measurement": "MIC", "setting": "strain E5-1046723", "value": 0.06, "unit": "µg/mL"}, {"measurement": "MIC", "setting": "strain E5-1047585", "value": 0.03, "unit": "µg/mL"}, {"measurement": "MIC", "setting": "strain E5-1047606", "value": 0.03, "unit": "µg/mL"}, {"measurement": "MIC", "setting": "strain E5-1047924", "value": 0.03, "unit": "µg/mL"}, {"measurement": "MIC", "setting": "strain E5-1048204", "value": 0.03, "unit": "µg/mL"}, {"measurement": "MIC", "setting": "strain E5-1048428", "value": 0.06, "unit": "µg/mL"}, {"measurement": "MIC", "setting": "strain E5-1048654", "value": 0.06, "unit": "µg/mL"}, {"measurement": "MIC", "setting": "strain E5-1048670", "value": 0.06, "unit": "µg/mL"}, {"measurement": "MIC", "setting": "strain EEFIC 01", "value": 0.03, "unit": "µg/mL"}, {"measurement": "MIC", "setting": "strain EEFIC 02", "value": 0.03, "unit": "µg/mL"}, {"measurement": "MIC", "setting": "strain K000772", "value": 0.06, "unit": "µg/mL"}, {"measurement": "MIC", "setting": "strain K000796", "value": 0.03, "unit": "µg/mL"}, {"measurement": "MIC", "setting": "strain K000863", "value": 0.03, "unit": "µg/mL"}, {"measurement": "MIC", "setting": "strain K000864", "value": 0.03, "unit": "µg/mL"}, {"measurement": "MIC", "setting": "strain K000866", "value": 0.03, "unit": "µg/mL"}, {"measurement": "MIC", "setting": "strain K115498", "value": 0.03, "unit": "µg/mL"}, {"measurement": "MIC", "setting": "strain K115688", "value": 0.03, "unit": "µg/mL"}, {"measurement": "MIC", "setting": "strain K115689", "value": 0.03, "unit": "µg/mL"}, {"measurement": "MIC", "setting": "strain R000019", "value": 0.06, "unit": "µg/mL"}, {"measurement": "MIC", "setting": "strain R000020", "value": 0.03, "unit": "µg/mL"}, {"measurement": "MIC", "setting": "strain R000024", "value": 0.06, "unit": "µg/mL"}, {"measurement": "MIC", "setting": "strain U115579", "value": 0.06, "unit": "µg/mL"}]}
